Laboratory results as given in the supplement of paper PMC10307832.

What was measured:
Experiment in all cases: relative viability (nuclei count vs DMSO), 5 days (fraction); higher = more cells survive
[1] = compound: O=C(NC1CCNCC1)c1n[nH]cc1NC(=O)c1c(Cl)cccc1Cl [AT-7519] + CC(C)C[C@H](NC(=O)[C@H](Cc1ccccc1)NC(=O)c1cnccn1)B(O)O [Bortezomib] (partner 0.002 µM)
Outline: (§1)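 After 5 days of treatment, lung cancer cells in 1536-well plates were fixed and stained in a single step (final 0.05% Triton X-100, 1% formaldehyde, 1 ug/ml Hoechst) and their nuclei counted on 4× images. Treatment had been applied by pin tool the day after seeding as one drug alone or as a fixed anchor-drug dose with five library-drug doses (not always all listed) in √10 steps. Relative viability is the nuclei count of treated wells divided by that of vehicle wells, and values are medians of duplicate plates.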

[2] = compound: C1=CC2=C(C=C(C(=C2N=C1)O)N=NC3=CC4=C(C=C3)C=C(C=C4)S(=O)(=O)O)S(=O)(=O)O + C[C@@H](Oc1cc(-c2cnn(C3CCNCC3)c2)cnc1N)c1c(Cl)ccc(F)c1Cl [Crizotinib] (partner 1 µM)
Outline: as §1

[3] = compound: C1=CC2=C(C=C(C(=C2N=C1)O)N=NC3=CC4=C(C=C3)C=C(C=C4)S(=O)(=O)O)S(=O)(=O)O + CC(=O)c1c(C)c2cnc(Nc3ccc(N4CCNCC4)cn3)nc2n(C2CCCC2)c1=O [Palbociclib] (partner 0.5 µM)
Outline: as §1

[4] = compound: O=C(NC1CCNCC1)c1n[nH]cc1NC(=O)c1c(Cl)cccc1Cl [AT-7519] + O=C(CCCCCCC(=O)Nc1ccccc1)NO [Vorinostat] (partner 1 µM)
Outline: as §1

Row | Cell Line | relative viability ([1]; first compound 0.01 µM) | relative viability ([1]; first compound 0.03162 µM) | relative viability ([1]; first compound 0.3162 µM) | relative viability ([1]; first compound 1 µM) | relative viability ([2]; first compound 0.08 µM) | relative viability ([2]; first compound 0.253 µM) | relative viability ([2]; first compound 0.8 µM) | relative viability ([2]; first compound 2.53 µM) | relative viability ([2]; first compound 8 µM) | relative viability ([3]; first compound 0.08 µM) | relative viability ([3]; first compound 0.253 µM) | relative viability ([3]; first compound 0.8 µM) | relative viability ([3]; first compound 2.53 µM) | relative viability ([3]; first compound 8 µM) | relative viability ([4]; first compound 0.01 µM) | relative viability ([4]; first compound 0.03162 µM) | relative viability ([4]; first compound 0.3162 µM) | relative viability ([4]; first compound 1 µM)
1 | Calu-6 | 1.11 | 0.975 | 1 | 0.328 | 0.96 | 0.761 | 0.763 | 0.817 | 0.821 |  |  |  |  |  |  |  |  | 
2 | ChaGo-K-1 | 1.03 | 1.37 | 0.763 | 0.96 | 1.12 | 1.16 | 1.13 | 1.21 | 1.12 | 0.974 | 0.948 | 0.931 | 0.903 | 0.853 | 0.734 | 0.741 | 0.797 | 0.752
3 | EBC-1 | 0.615 | 0.551 | 0.443 | 0.23 | 0.231 | 0.197 | 0.197 | 0.183 | 0.162 |  |  |  |  |  |  |  |  | 
4 | EKVX | 0.978 | 0.911 | 0.996 | 1.13 | 0.997 | 0.959 | 1 | 0.894 | 0.915 | 0.542 | 0.359 | 0.35 | 0.48 | 0.344 | 0.671 | 0.636 | 0.535 | 0.786
